The test system of experiment [1] is isolated guinea pig trachea. Description: Antagonism of KCl-induced contraction of the isolated guinea pig trachea. The settings on record: Cavia porcellus; agonist KCl; read-out: Anticontractile effect (trachea), concentration range needed to bring about a dilatation corresponding to the ED50 range. An excerpt:
(§1) The compounds according to the invention are used as antagonists of the contraction of various parts of organs, in this case the isolated guinea pig trachea. The agonists used were KCl, PGF2a, calcium ionophore A23187 and substance P:
Products with a non-specific effect generally show a spasmolytic effect with respect to all agonists. KCI is representative here of non-specific, receptor-independent contraction because KCl-induced contractions are produced predominantly physically, that is to say by increasing the K+ concentration in the outside medium, and change the resting potential of the cell.
(§2) The guinea pigs were sacrificed by lethal anesthesia with laughing gas. The trachea was dissected out over its entire length and cut into 15 individual cartilage rings. In each case five rings were connected together to form a chain and fixed in an organ bath under a preload of 3 g. After an equilibration period of 45 minutes, a contraction was induced with the agonist. Cumulative addition of the antagonist (test product) took place at the plateau 5 of the maximum. Evaluation took place as % change in strength based on the maximum contraction. The test was carried out at 37° C., and the physiological nutrient solution used was a modified Krebs-Henseleit solution through which 95% by volume 02 and 5% by volume CO2 was bubbled.
(§3) Test animals: Albino guinea pigs (102), weight: 200 to 300 g, male or female
(§4) Composition of the organ bath (nutrient solution):
(§5) Vehicle: Double-distilled water, ethanol or isopropanol; Administration: into the organ bath Number of administrations: cumulative, single doses for SP

For experiment [2], the system named is isolated guinea pig trachea. The experiment in a line: Antagonism of PGF2α-induced contraction of the isolated guinea pig trachea. As to conditions: Cavia porcellus; agonist PGF2α; read-out: Anticontractile effect (trachea), concentration range needed to bring about a dilatation corresponding to the ED50 range.
Description: as §1
Inhibition of contractions induced by this cyclooxygenase product is possible only by competitive antagonism at the receptor or of the downstream signal pathway.
as §2, §3, §4, §5

The subject of experiment [3] is isolated guinea pig trachea. Description: Antagonism of calcium ionophore A23187-induced contraction of the isolated guinea pig trachea. The settings on record: Cavia porcellus; agonist Ca ionophore A23187; read-out: Anticontractile effect (trachea), concentration range needed to bring about a dilatation corresponding to the ED50 range.
Description: as §1
c) Calcium ionophore A23187 (Calbiochem, Bad Soden) brings about, due to increased uptake of calcium ions, an activation of all calcium-dependent signal cascades in the cell.
as §2, §3, §4, §5

Experiment [4] relates to isolated guinea pig trachea. Description: Antagonism of substance P-induced contraction of the isolated guinea pig trachea. As to conditions: Cavia porcellus; agonist substance P; read-out: Anticontractile effect (trachea), concentration range needed to bring about a dilatation corresponding to the ED50 range.
Description: as §1
Antagonism is possible on the one hand by specific receptor antagonists, and on the other hand by inhibition of the downstream signal pathway.
as §2, §3, §4, §5

Experiment [5] relates to isolated strips of guinea pig lung. The experiment in a line: Antagonism of LTD4-induced contraction of isolated strips of guinea pig lung. As to conditions: Cavia porcellus; agonist LTD4; read-out: Anticontractile effect (lung), concentration range corresponding to the IC50 value. An excerpt: (§6) The test was based on the same principle as the test indicated in Pharmacological Test 5; however, strips of lung were used in this case.
(§7) The guinea pig was sacrificed under anesthesia with laughing gas. The entire lung tract was cut out starting from the trachea. The lobes of the lungs were cut in circular fashion to produce strips about 3 mm wide. The strips of the upper lobes were divided up in order to obtain a total of six strips of approximately equal size. The strips were suspended in the organ baths under a preload of 4 g. Modified Krebs-Henseleit solutions were used as nutrient solution. When platelet activating factor (PAF) was used as agonist, the composition of this solution corresponded to that for the agonist SP in Pharmacological Test 5; a Krebs-Henseleit solution as in the case of the agonist KCI (Pharm. Test 5) was used for the agonist LTD4. 95% by volume 02, 5% by volume CO2 was bubbled through the bath, and the bath temperature was 37° C. The test is carried out by a therapeutic/cumulative method with dose levels of 1, 3, 6 and 10 μg/ml.
(§8) The test animals, organ bath, vehicle, mode of administration corresponded to that stated for Pharmacological Test 5.

Experiment [6] shares this test system. Description: Antagonism of PAF-induced contraction of isolated strips of guinea pig lung. As to conditions: Cavia porcellus; agonist PAF; read-out: Anticontractile effect (lung), concentration range corresponding to the IC50 value.
Description: as §6, §7, §8

In a further experiment the test system is Wistar-Lewis rats. The experiment in a line: Adjuvant arthritis. The format is in vivo. As to conditions: 12.6 mg/kg intraperitoneal, twice a day for 18 days. The protocol:
The investigations were carried out as described in EP 50 42 740.

Experiment [7] has as its system RAW 264.7 cells. Description: Release of tumor necrosis factor α from RAW 264.7 cells. The format is cell-based. The settings on record: Mus musculus, RAW264.7, LPS, incubation for 4 h, read-out: inhibition of TNFα formation compared with an untreated control. The protocol: (§9) Culture medium: DMEM+10% FCS+penicillin/streptomycin (50 U/SO μg/ml)
(§10) Culture conditions: 37° C., 10% CO2
(§11) Culture dishes: 24-well dishes
(§12) In each case 10^6 cells/ml/well were incubated for 24 hours (h)
(§13) Addition of 10 μl of test substance (=100 μM in the test, dissolved in double-distilled water)
Addition of 50 μl of lipopolysaccharide (LPS) from E. coli (=10 pg/ml in the test, dissolved in culture medium) […]
Tumor necrosis factor α was determined using a Factortest X mouse TNFα ELISA kit from Genzyme (R(1sselsheim, Geromany), Order no. 80-2802-00.

Experiment [8] deals with RAW 264.7 cells. The experiment in a line: Release of substance P from RAW 264.7 cells. The format is cell-based. The settings on record: Mus musculus, RAW264.7, stimulated by 50 ng of LPS for 4 hours, read-out: inhibition of substance P production. The protocol: as §9, §10, §11, §12, §13
Release of substance P took place as described for TNFα, but the cells were stimulated by 50 ng of LPS for 4 hours. Substance P was determined using a substance P RIA test kit from Peninsula Laboratories (Belmont, USA) Test no. RIK-7451.

In the next experiment the test system is matrix metalloproteases. The experiment in a line: Inhibition of matrix metalloproteases (MMP from rabbit synoviocytes HIG-82, fluorescent substrate). The format is biochemical. The protocol:
After confluent cell growth, the MMP expression was induced in the serum-free 3F12 HAM medium by adding 0.3 μmol/l phorbol 12-myristate 13-acetate. The supernatant was removed after incubating at 37° C. for 20 hours.
Activation of the MMP: The supernatant was activated with trypsin (5 μg/ml). After 15 minutes at 37° C., the activation was stopped by adding 1 mmol/l phenylmethylsulfonyl fluoride (PMSF) and incubating for a further 10 minutes. The total volume of the mixture was 210 μl.
The test substance was added in the stated concentration (see table). […] The reaction was stopped after 30 minutes by adding 10 mmol/l EDTA. The total-volume of the mixture was 320 μl . The parameters measured were the fluorescence intensities at […]. In order to take account of the possible intrinsic fluorescence of the test substances, the fluorescence intensities from parallel measurements without substrate were subtracted from the measurements with substrate. All the steps took place at 20° C.

A further experiment concerns rat liver microsomes. Description: Inhibition of microsomal lipid peroxidation. The format is biochemical. As to conditions: 37° C., 10 minutes. The protocol: Obtaining rat liver microsomes: All steps were carried out at 0° C. The liver from a rat was thoroughly rinsed with 0.9% NaCl solution to remove all the hemoglobin. The liver wascut into pieces and then treated in a Potter in 10 mM Tris/HCl pH 7.4; 250 mM sucrose (10 ml of buffer/g of liver). The first centrifugation was at 600 x g for 55 minutes to remove cell detritus. The supernatant was then centrifuged at 12000 x g for 10 minutes and was adjusted with solid CaCI2 (117.6 mg/100 ml) to a concentration of 8 mM. A microsome pellet was obtained by centrifugation at 25000 x g (15 minutes). This pellet was ohomogenized in the same volume of buffer (10 mM Tris/BCI pH 7.4; 150 mMKCl) and again centrifuged at 25000 x g for 15 minutes.
Peroxidation by rat liver microsomes: A test mixture consisted of 20 μl of microsomes (100 mg/ml), see above, dissolved in a buffer (250 mM Tris/HCI pB 6.6; 750 mMKCl), 10 iL1 of 50 mM MgCI2, 10 μl of 200 mM isocitric acid, 10 μl of 4 mM NADP (3.028 mg/ml in water), 10 μl of 25 mM niacinamide, 10 μl of isocitrate dehydrogenase (Boehringer, diluted 1:100) and 20 μl of water or test substance. The reaction was started with 10 μl of 0.25 mM FeSO4. […] The malonaldehyde which was formed was converted by adding 500 μl of 0.67 percent thiobarbituric acid and incubating at 90° C. for 30 min into a pink-colored compound which was measured in a photometer at 532 nm. […]

For the next experiment, the system named is interleukin-1β. Description: Inhibition of release of interleukin-1β from human mononuclear cells. The format is cell-based. As to conditions: 10 .parallel.mol/l (so in the source), IL-1β, LPS-stimulated, 20 to 22 hours. As for the experimental part:
Obtaining mononuclear cells from human blood: 10 ml of human blood stabilized with 1 ml of 3.8 percent sodium citrate solution were diluted with 10 ml of PM16 (Serra, Heidelberg), and an underlayer of 15 ml of Lymphoprep (Dr. Molter GmbH, Heidelberg) was introduced. The samples were centrifuged at 400 x g (Minifuge 2 Heraeus, Osterode) at room temperature for 40 minutes. The mononuclear cells were visible as a white ring at the Lymphoprep/plasma boundary. This ring was cautiously removed with a syringe, diluted with the same volume of PM16 and centrifuged at 400 x g for 10 minutes. The precipitate was washed with ^~ 10 ml of RPMI1640 (+300 mg/I L-glutamine, Gibco, Eggenstein). After the cells had been suspended in ^~ 1 ml of RPMI1640 (+300 mg/I L-glutamine, +25 mM HEPES, +100 μg/ml streptomycin, +100 μg/ml penicillin), the cell density was determined with a JT Coulter Counter (Coulter Diagnostics) and adjusted to 5.10^6 /ml. 90% of the resulting cells were lymphocytes and 10% were monocytes.
Inhibition of release of interleukin-1β: 230 μl of mononuclear cells were incubated with 10 μl of test substance (10 μM in dimethyl sulfoxide (DMSO)/water=1/10) and 10 μl of a lipopolysaccharide solution (500 μg dissolved in 1 ml of DMSO and diluted 1/10 with water before starting the test, from Salmonella abortus equi, (Sigma, Deisenhofen) at 37° C., 5% CO2 for 20 to 22 hours. The samples were cooled to 0° C. in an ice bath and centrifuged in a Sigma centrifuge (2 minutes; 2000 revolutions per minute (rpm)). Aliquots of the supernatant were determined using a commercially available ELISA 5(Biermann, Bad Nauheim).
All active substances were tested at a concentration of 10 .parallel.mol/l. IL-1β release was tested in each case.

In brackets after ≈: the same amount, converted by molar mass.

As to `CCOP(=O)(OCC)/C(C#N)=C/c1ccc(OC)c(OC)c1` [Compound 38, Z- and E-2-(diethoxyphosphinyl)-3-(3,4-dimethoxyphenyl) acrylonitrile], the EC50 in [1] is above 10 µg/mL; in [2], 1 to 3 µg/mL (≈ 3.07 to 9.22 µM); in [3] it was around 3 µg/mL (≈ 9.22 µM); in experiment [4], 3 to 10 µg/mL (≈ 9.22 to 30.7 µM). Besides, the IC50 in experiment [5] is around 1 µg/mL (≈ 3.07 µM); in experiment [6] it was below 0.1 µg/mL. Further, the “inhibition of the increase in the paw volume compared with an untreated control group” value in the experiment with Wistar-Lewis rats came to 98%. The inhibition at 100 µM is 16% with RAW 264.7 cells [7] and 100% in the experiment with RAW 264.7 cells [8].
Regarding `CCOC(=O)C(=Cc1ccc(O)c(O)c1)P(=O)(OCC)OCC` [Compound 47, Ethyl 2-(diethoxyphosphinyl)-3-(3,4-dihydroxyphenyl) propenoate], the results for the “Inhibition of MMP, Inhibition (%)” value in the experiment on matrix metalloproteases (10 μM), with matrix metalloproteases (30 μM) and with matrix metalloproteases (100 μM) were 13%, 24% and 55%, respectively. In the experiment with rat liver microsomes, this molecule displayed an IC50 of 2.1 µM. In the experiment with interleukin-1β, this molecule showed an inhibition at 10 µM of 80%.

The values above are taken from patent publication US5627173A, “Phosphonoacetic acid derivatives and their use for treating degenerative joint disorders” (Hoechst Aktiengesellschaft, priority 1995, dated 1997).
